# Assay results reported in patent EP4745135A1 (Gluetacs Therapeutics (Shanghai) Co., Ltd., priority 2023, dated 2025).
# Tests used:
# IKZF2 = biological target: T1, IKZF2 (Homo sapiens, UniProt Q96SW2+Q9UKS7); assay: Western blot, degradation of substrate protein in hPBMCs; assay type: cell-based; settings: Western blot, 24 hours of compound treatment, compounds tested at 50 nM and 500 nM (concentration for the table not stated)
# T1 construct: effects of the compounds of the present disclosure on the expression of target proteins in cells; endogenous in cells; host or cells: human PBMCs (Milecell Biotechnologies)
# IKZF3 = biological target: T2, IKZF3 (Homo sapiens, UniProt Q96SW2+Q9UKT9); assay: as above; assay type: cell-based; settings: Western blot, 24 hours of compound treatment, compounds tested at 50 nM and 500 nM (concentration for the table not stated)
# T2 construct: effects of the compounds of the present disclosure on the expression of target proteins in cells; endogenous in cells; host or cells: human PBMCs (Milecell Biotechnologies)
# WEE1 = biological target: T3, WEE1 (Homo sapiens, UniProt P30291+Q96SW2); assay: as above; assay type: cell-based; settings: Western blot, 24 hours of compound treatment, compounds tested at 50 nM and 500 nM (concentration for the table not stated)
# T3 construct: effects of the compounds of the present disclosure on the expression of target proteins in cells; endogenous in cells; host or cells: human PBMCs (Milecell Biotechnologies)
# CK1α = biological target: T4, CK1α (Homo sapiens, UniProt P48729+Q96SW2); assay: as above; assay type: cell-based; settings: Western blot, 24 hours of compound treatment, compounds tested at 50 nM and 500 nM (concentration for the table not stated)
# T4 construct: effects of the compounds of the present disclosure on the expression of target proteins in cells; endogenous in cells; host or cells: human PBMCs (Milecell Biotechnologies)
# IKZF1 = biological target: T5, IKZF1 (Homo sapiens, UniProt Q13422+Q96SW2); assay: as above; assay type: cell-based; settings: Western blot, 24 hours of compound treatment, compounds tested at 50 nM and 500 nM (concentration for the table not stated)
# T5 construct: effects of the compounds of the present disclosure on the expression of target proteins in cells; endogenous in cells; host or cells: human PBMCs (Milecell Biotechnologies)
# [1] = biological target: T6, human Cereblon WT GST-tagged protein (Homo sapiens, UniProt Q96SW2); assay: CRBN-binding affinity, HTRF (CEREBLON BINDING kit); settings: for inhibition at 0.5 µM: read-out: Inhibition Rate at 0.5 µM (%); for inhibition at 2 µM: read-out: Inhibition Rate at 2 µM (%)
# T6 construct: purchased CISBIO 64BDCRBNPEH
# GSPT1 = assay: Western blot, degradation of substrate protein in hPBMCs; assay type: cell-based, Human; settings: Western blot, 24 hours of compound treatment, compounds tested at 50 nM and 500 nM (concentration for the table not stated)
# T5 sequence (Q13422 whole entry): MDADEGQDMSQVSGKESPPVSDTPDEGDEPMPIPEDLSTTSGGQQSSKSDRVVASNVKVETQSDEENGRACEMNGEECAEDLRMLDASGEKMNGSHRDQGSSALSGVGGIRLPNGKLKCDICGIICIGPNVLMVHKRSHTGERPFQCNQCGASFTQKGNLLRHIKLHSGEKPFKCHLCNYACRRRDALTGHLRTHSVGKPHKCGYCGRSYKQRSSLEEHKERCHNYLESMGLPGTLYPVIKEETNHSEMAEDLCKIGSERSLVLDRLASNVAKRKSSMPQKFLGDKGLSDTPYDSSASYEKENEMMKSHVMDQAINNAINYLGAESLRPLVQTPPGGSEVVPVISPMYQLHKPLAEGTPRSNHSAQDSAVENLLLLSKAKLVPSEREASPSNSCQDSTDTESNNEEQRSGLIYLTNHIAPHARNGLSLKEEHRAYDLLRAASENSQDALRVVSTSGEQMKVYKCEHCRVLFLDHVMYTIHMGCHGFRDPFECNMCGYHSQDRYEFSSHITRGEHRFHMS
# T5 sequence (Q96SW2 whole entry): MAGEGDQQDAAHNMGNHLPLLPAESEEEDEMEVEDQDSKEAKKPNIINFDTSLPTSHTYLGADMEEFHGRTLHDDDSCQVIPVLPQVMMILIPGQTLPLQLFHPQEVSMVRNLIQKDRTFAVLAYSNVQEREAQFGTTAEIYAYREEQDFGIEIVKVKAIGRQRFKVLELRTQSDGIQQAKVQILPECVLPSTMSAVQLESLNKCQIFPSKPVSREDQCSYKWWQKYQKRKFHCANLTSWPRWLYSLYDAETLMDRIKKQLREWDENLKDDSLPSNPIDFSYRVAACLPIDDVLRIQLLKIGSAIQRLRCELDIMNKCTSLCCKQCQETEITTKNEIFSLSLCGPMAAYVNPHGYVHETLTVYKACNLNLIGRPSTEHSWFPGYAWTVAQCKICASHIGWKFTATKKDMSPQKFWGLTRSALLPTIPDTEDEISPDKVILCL
# T5 sequence (Q16531 whole entry partner): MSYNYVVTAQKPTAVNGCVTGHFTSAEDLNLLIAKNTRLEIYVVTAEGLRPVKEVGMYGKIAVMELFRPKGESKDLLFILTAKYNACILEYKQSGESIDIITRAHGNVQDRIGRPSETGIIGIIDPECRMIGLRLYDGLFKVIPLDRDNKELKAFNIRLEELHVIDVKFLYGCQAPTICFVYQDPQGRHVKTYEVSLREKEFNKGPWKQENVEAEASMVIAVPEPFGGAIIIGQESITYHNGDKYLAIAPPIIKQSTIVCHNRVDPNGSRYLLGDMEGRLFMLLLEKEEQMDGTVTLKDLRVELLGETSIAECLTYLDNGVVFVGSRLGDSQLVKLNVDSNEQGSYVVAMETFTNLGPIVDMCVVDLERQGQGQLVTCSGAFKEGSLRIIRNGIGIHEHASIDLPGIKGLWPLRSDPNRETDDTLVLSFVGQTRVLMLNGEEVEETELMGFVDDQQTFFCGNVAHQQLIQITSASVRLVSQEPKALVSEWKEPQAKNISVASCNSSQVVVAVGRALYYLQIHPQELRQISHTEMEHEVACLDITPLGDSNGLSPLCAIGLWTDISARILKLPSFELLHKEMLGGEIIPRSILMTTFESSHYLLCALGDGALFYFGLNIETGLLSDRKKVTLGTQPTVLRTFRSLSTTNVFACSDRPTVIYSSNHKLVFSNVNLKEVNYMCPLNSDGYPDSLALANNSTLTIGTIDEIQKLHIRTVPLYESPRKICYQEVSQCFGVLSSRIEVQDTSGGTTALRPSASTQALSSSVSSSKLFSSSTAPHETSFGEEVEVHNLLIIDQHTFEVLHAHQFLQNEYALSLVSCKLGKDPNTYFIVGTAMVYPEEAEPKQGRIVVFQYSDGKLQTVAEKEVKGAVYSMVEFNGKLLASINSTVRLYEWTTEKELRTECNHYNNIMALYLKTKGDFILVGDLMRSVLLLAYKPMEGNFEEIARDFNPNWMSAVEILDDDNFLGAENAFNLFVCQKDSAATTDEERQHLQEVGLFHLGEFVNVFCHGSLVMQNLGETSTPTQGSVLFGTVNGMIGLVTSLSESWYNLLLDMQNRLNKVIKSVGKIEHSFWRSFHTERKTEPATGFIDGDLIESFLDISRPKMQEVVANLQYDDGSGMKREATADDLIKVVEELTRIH
# T3 sequence (P30291 whole entry): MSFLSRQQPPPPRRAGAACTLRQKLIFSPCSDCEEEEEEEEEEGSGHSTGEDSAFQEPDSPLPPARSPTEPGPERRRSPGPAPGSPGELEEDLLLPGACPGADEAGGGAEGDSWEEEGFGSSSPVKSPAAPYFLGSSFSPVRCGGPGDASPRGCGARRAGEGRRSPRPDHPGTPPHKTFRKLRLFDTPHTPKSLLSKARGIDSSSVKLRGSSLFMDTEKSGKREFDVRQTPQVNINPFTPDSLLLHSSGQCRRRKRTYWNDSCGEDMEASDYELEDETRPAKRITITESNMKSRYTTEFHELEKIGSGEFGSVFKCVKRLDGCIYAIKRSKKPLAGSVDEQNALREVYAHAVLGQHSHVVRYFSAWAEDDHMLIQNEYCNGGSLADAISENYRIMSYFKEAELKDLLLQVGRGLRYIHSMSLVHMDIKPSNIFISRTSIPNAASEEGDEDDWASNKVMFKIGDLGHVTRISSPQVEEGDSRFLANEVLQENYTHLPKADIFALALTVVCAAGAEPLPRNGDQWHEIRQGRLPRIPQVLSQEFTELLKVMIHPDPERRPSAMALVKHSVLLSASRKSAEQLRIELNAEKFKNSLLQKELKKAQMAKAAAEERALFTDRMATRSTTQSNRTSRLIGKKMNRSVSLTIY
# T3 sequence (Q96SW2 whole entry): as the sequence (Q96SW2 whole entry) above
# T3 sequence (Q16531 whole entry partner): as the sequence (Q16531 whole entry partner) above
# T4 sequence (P48729 whole entry): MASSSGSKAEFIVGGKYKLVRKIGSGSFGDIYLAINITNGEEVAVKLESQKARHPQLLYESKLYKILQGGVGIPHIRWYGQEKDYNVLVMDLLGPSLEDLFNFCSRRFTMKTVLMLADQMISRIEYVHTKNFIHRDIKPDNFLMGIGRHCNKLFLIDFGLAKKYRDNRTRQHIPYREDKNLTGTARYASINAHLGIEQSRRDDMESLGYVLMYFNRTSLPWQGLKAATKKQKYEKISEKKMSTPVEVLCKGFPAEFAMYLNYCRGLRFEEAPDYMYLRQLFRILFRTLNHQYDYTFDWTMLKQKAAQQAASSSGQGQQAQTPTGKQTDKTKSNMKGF
# T4 sequence (Q96SW2 whole entry): as the sequence (Q96SW2 whole entry) above
# T4 sequence (Q16531 whole entry partner): as the sequence (Q16531 whole entry partner) above
# T2 sequence (Q9UKT9 whole entry): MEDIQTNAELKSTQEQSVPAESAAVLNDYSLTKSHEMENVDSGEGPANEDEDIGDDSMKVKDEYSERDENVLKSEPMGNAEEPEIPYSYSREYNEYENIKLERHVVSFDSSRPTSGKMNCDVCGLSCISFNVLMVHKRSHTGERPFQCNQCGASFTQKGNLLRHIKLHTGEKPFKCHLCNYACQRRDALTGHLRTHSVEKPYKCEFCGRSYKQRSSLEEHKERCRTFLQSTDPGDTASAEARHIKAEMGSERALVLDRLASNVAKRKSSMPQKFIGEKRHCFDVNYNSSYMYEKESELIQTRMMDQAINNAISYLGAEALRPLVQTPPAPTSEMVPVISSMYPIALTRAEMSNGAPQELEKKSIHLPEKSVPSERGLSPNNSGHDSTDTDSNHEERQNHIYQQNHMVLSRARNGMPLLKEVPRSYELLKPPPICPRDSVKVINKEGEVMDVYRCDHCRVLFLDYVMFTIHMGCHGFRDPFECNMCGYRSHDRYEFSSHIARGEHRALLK
# T2 sequence (Q96SW2 whole entry): as the sequence (Q96SW2 whole entry) above
# T2 sequence (Q16531 whole entry partner): as the sequence (Q16531 whole entry partner) above
# T6 sequence (Q96SW2 whole entry): as the sequence (Q96SW2 whole entry) above
# T1 sequence (Q9UKS7 whole entry): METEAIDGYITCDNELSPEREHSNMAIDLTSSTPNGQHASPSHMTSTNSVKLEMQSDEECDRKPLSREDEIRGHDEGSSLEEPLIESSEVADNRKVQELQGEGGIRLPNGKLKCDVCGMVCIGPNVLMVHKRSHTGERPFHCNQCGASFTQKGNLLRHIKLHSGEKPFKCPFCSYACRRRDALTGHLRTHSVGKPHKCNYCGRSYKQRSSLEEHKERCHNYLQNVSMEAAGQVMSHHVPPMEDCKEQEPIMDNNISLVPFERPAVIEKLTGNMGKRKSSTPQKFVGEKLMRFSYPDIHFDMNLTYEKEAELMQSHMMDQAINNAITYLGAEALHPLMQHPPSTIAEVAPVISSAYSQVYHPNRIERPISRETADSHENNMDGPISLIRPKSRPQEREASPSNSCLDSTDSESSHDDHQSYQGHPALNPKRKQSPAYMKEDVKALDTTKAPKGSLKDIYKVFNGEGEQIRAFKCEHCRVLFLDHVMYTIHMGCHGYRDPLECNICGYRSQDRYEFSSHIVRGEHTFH
# T1 sequence (Q96SW2 whole entry): as the sequence (Q96SW2 whole entry) above
# T1 sequence (Q16531 whole entry partner): as the sequence (Q16531 whole entry partner) above
Structure (SMILES),IKZF2 substrate protein remaining % (IKZF2),IKZF3 substrate protein remaining % (IKZF3),Wee1 substrate protein remaining % (WEE1),CK1α substrate protein remaining % (CK1α),IKZF 1 substrate protein remaining % (IKZF1),inhibition at 0.5 µM [1] [%],inhibition at 2 µM [1] [%],GSPT1 substrate protein remaining % (GSPT1)
"O=C1CCC(N2Cc3cc(CN4CC=C(c5ccnc(F)c5F)CC4)ccc3C2=S)C(=O)N1 (stereo not drawn) [GT-08474, 3-(5-((2',3'-difluoro-3,6-dihydro-[4,4'-bipyridin]-1(2H)-yl)methyl)-1-thioxoisoindolin-2-yl)piperidine-2,6-dione]",B (80%< substrate protein remaining %≤ 100%),B (80%< substrate protein remaining %≤ 100%),B (80%< substrate protein remaining %≤ 100%),B (80%< substrate protein remaining %≤ 100%),B (80%< substrate protein remaining %≤ 100%),80 to 100,80 to 100,A (0% ≤ substrate protein remaining % ≤ 80%)
"O=C1CCC(N2Cc3cc(CN4CCC(c5ccnc(Cl)c5Cl)CC4)ccc3C2=S)C(=O)N1 (stereo not drawn) [GT-08475, 3-(5-((4-(2,3-dichloropyridin-4-yl)piperidin-1-yl)methyl)-1-thioxoisoindolin-2-yl)piperidine-2,6-dione]",B (80%< substrate protein remaining %≤ 100%),B (80%< substrate protein remaining %≤ 100%),B (80%< substrate protein remaining %≤ 100%),B (80%< substrate protein remaining %≤ 100%),B (80%< substrate protein remaining %≤ 100%),60 to 80,80 to 100,A (0% ≤ substrate protein remaining % ≤ 80%)
"O=C1CCC(N2Cc3cc(CN4CC5CCC(C4)N5c4cccc(Cl)c4Cl)ccc3C2=S)C(=O)N1 (stereo not drawn) [GT-08479, 3-(5-((8-(2,3-dichlorophenyl)-3,8-diazabicyclo[3.2.1]octan-3-yl)methyl)-1-thioxoisoindolin-2-yl)piperidine-2,6-dione]",B (80%< substrate protein remaining %≤ 100%),B (80%< substrate protein remaining %≤ 100%),B (80%< substrate protein remaining %≤ 100%),B (80%< substrate protein remaining %≤ 100%),B (80%< substrate protein remaining %≤ 100%),40 to 53,60 to 80,A (0% ≤ substrate protein remaining % ≤ 80%)
"Cn1cc(C2=CCN(Cc3cccc4c3CN(C3CCC(=O)NC3=O)C4=S)CC2)c2ccc(F)cc21 (stereo not drawn) [GT-08493, 3-(4-((4-(6-fluoro-1-methyl-1H-indol-3-yl)-3,6-dihydropyridin-1(2H)-yl)methyl)-1-thioxoisoindolin-2-yl)piperidine-2,6-dione]",A (0% ≤ substrate protein remaining % ≤ 80%),B (80%< substrate protein remaining %≤ 100%),B (80%< substrate protein remaining %≤ 100%),B (80%< substrate protein remaining %≤ 100%),B (80%< substrate protein remaining %≤ 100%),40 to 53,80 to 100,A (0% ≤ substrate protein remaining % ≤ 80%)
"O=C1CCC(N2Cc3c(CN4CC=C(c5c[nH]c6ncccc56)CC4)cccc3C2=S)C(=O)N1 (stereo not drawn) [GT-08494, 3-(4-((4-(1H-pyrrolo[2,3-b]pyridin-3-yl)-3,6-dihydropyridin-1(2H)-yl)methyl)-1-thioxoisoindolin-2-yl)piperidine-2,6-dione]",A (0% ≤ substrate protein remaining % ≤ 80%),B (80%< substrate protein remaining %≤ 100%),A (0% ≤ substrate protein remaining % ≤ 80%),B (80%< substrate protein remaining %≤ 100%),A (0% ≤ substrate protein remaining % ≤ 80%),60 to 80,80 to 100,B (80%< substrate protein remaining %≤ 100%)
"COc1ccc(N2CCN(Cc3cccc4c3CN(C3CCC(=O)NC3=O)C4=S)CC2)cc1 (stereo not drawn) [GT-08495, 3-(4-((4-(4-methoxyphenyl)piperazin-1-yl)methyl)-1-thioxoisoindolin-2-yl)piperidine-2,6-dione]",A (0% ≤ substrate protein remaining % ≤ 80%),B (80%< substrate protein remaining %≤ 100%),A (0% ≤ substrate protein remaining % ≤ 80%),B (80%< substrate protein remaining %≤ 100%),A (0% ≤ substrate protein remaining % ≤ 80%),53 to 60,60 to 80,A (0% ≤ substrate protein remaining % ≤ 80%)
